Assay results taken from patent publication US5866571A, “9-substituted 2-(2-n-alkoxyphenyl)-purin-6-ones” (Bayer Aktiengesellschaft, priority 1995, dated 1999).

How the values were obtained:
Type in all cases: biochemical
[1] = test system: PDE V (cGMP-specific PDE V); assay: Inhibition of the phosphodiesterases in vitro: PDE V; details: enzyme from porcine small intestine, porcine aorta and/or human blood platelets; 10^-6 mol/l nucleotide, pH 7.5, 30 minutes
Experimental: (§1) Activity of the phosphodiesterases (PDE's)
(§2) The cGMP-stimulatable PDE II, the cGMP-inhibitable PDE III and the cAMP-specific PDE IV were isolated from either the porcine or the bovine myocardium. The Ca-calmodulin-stimulatable PDE I was isolated from porcine aorta or porcine brain. The cGMP-specific PDE V was obtained from porcine small intestine, porcine aorta and/or human blood platelets. Purification was carried out by anion exchange chromatography on MonoQ^R Pharmacia essentially by the method of M. Hoey and Miles D. Houslay, Biochemical Pharmacology, Volume 40, 193-202 (1990).
(§3) The enzyme activity is determined in a test batch of 100 μl in 20 mM Tris/HCl buffer of pH 7.5 which contains 5 mM MgCl2, 0.1 mg/ml of bovine serum albumin and either 800 Bq of ^3 HcAMP or ^3 HcGMP. The final concentration of the corresponding nucleotides is 10^-6 mol/l. The reaction is started by addition of the enzyme and the amount of enzyme is chosen such that about 50% of the substrate is reacted during the incubation time of 30 minutes. In order to test the cGMP-stimulatable PDE II, ^3 HcAMP is used as the substrate and 10^-6 mol/l of non-labelled cGMP is added to the batch. In order to test the Ca-calmodulin-dependent PDE I, 1 μM CaCl2 and 0.1 μM calmodulin are also added to the reaction batch. The reaction is stopped by addition of 100 μl of acetonitrile which contains 1 mM cAMP and 1 mM AMP. 100 μl of the reaction batch are separated on the […] and the cleavage products are determined quantitatively "on line" with a flow-through scintillation counter. The substance concentration at which the rate of reaction is reduced by 50% is measured.
(§4) Inhibition of the phosphodiesterases in vitro

[2] = test system: PDE I (Ca-calmodulin-stimulatable PDE I); assay: Inhibition of the phosphodiesterases in vitro: PDE I; details: enzyme from porcine aorta or porcine brain; 1 μM CaCl2, 0.1 μM calmodulin; 10^-6 mol/l nucleotide, pH 7.5, 30 minutes
Experimental: as §1, §2, §3, §4

[3] = test system: PDE II (cGMP-stimulatable PDE II); assay: Inhibition of the phosphodiesterases in vitro: PDE II; details: enzyme from porcine or bovine myocardium; ^3HcAMP substrate plus 10^-6 mol/l non-labelled cGMP, pH 7.5, 30 minutes
Experimental: as §1, §2, §3, §4

Row | IC50 [1] [nM] | IC50 [2] [nM] | IC50 [3] [nM] | Compound
1 | 100 | 50000 | 6000 | CCCCCCC(C(C)O)n1cnc2c(=O)[nH]c(-c3ccccc3OCCC)nc21 (stereo not drawn) [Example 3, 9-(2-hydroxy-3-nonyl)-2-(2-n-propoxyphenyl)-purin-6-one]
2 | 2000 | 1000 | 500 | CCCOc1ccccc1-c1nc2c(ncn2C(CCCc2ccccc2)C(C)O)c(=O)[nH]1 (stereo not drawn) [Example 5, 9-(2-hydroxy-6-phenyl-3-hexyl)-2-(2-n-propoxyphenyl)-purin-6-one]
3 | 1000 | 2000 | 2000 | CCCCCCC(C(C)NC(C)=O)n1cnc2c(=O)[nH]c(-c3ccccc3OCCC)nc21 (stereo not drawn) [Example 37, 9-(2-Acetamido-3-nonyl)-2-(2-n-propoxyphenyl)-purin-6-one]

The remaining lines, values behind:

Row | Compound | IC50 [1] [nM] | IC50 [2] [nM] | IC50 [3] [nM]
4 | CCCOc1ccccc1-c1nc2c(ncn2C(CCc2ccccc2)C(C)O)c(=O)[nH]1 (stereo not drawn) [Example 4, 9-(2-hydroxy-5-phenyl-3-methyl)-2-(2-n-propoxyphenyl)-purin-6-one] | 5000 | 2000 | 1000
5 | CCCOc1ccccc1-c1nc2c(ncn2C(C)CCCc2ccccc2)c(=O)[nH]1 (stereo not drawn) [Example 11] | 500 | 500 | 300
6 | CCCCCCC(CC)n1cnc2c(=O)[nH]c(-c3cc(S(=O)(=O)N4CCOCC4)ccc3OCCC)nc21 (stereo not drawn) [Example 57] | 100 | 300 | 300
